According to patent publication US6667387B1, “HCV core peptides” (priority 1992, dated 2003):
Ends that are not written are not given here.

What was measured:
[1] = test system: antibodies in sera from HCV-seropositive donors; assay: ELISA with HCV antibody-positive sera (biotinylated peptides on streptavidin- or avidin-coated plates, unbiotinylated peptides coated directly); type: binding, human
In short: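 Peptides coated either directly at 2–5 or 3 μg/ml in carbonate buffer pH 9.6, or biotinylated at 1 μg/ml on streptavidin-coated wells (3 μg/ml). Plates casein-blocked, then human sera (1:100 or 1:20) incubated 1 h at 37° C. Bound antibody detected with HRP anti-human Ig/TMB, read as OD450.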

[2] = ELISA with seronegative / negative control sera (specificity); type: binding, human
In short: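 Specificity readout is OD at 450 nm (HRP goat anti-human Ig, TMB/H2O2, sulfuric acid stop), with ≥0.250 counted positive. Seronegative donor sera (typically 1:100, 1 h, 37° C) were applied to casein-blocked wells coated with peptide directly or via streptavidin capture of biotinylated peptide.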

IIPDREVLYREFDEMEECSQ
optical density (450 nm) ([1]; Table 4F, serum 8315, 20-fold dilution): 2.614
optical density (450 nm) ([1]; Table 4F, serum 8316, 20-fold dilution): 0.133
optical density (450 nm) ([1]; Table 4F, serum 8317, 20-fold dilution): 0.855
optical density (450 nm) ([1]; Table 4F, serum 8318, 20-fold dilution): 1.965
optical density (450 nm) ([1]; Table 4F, serum 8320, 20-fold dilution): 0.721
optical density (450 nm) ([1]; Table 4F, serum 8321, 20-fold dilution): 0.283
optical density (450 nm) ([1]; Table 4F, serum 8326, 20-fold dilution): 2.219
optical density (450 nm) ([1]; Table 5, sample 8242 (positive), peptide concentration 0.01 micrograms per milliliter, listed as Unbiotinylated HCV peptide IX): 0.049
optical density (450 nm) ([1]; Table 5, sample 8242 (positive), peptide concentration 0.03 micrograms per milliliter, listed as Unbiotinylated HCV peptide IX): 0.047
optical density (450 nm) ([1]; Table 5, sample 8242 (positive), peptide concentration 0.1 micrograms per milliliter, listed as Unbiotinylated HCV peptide IX): 0.046
optical density (450 nm) ([1]; Table 5, sample 8242 (positive), peptide concentration 0.3 micrograms per milliliter, listed as Unbiotinylated HCV peptide IX): 0.048
optical density (450 nm) ([1]; Table 5, sample 8242 (positive), peptide concentration 1.0 micrograms per milliliter, listed as Unbiotinylated HCV peptide IX): 0.052
optical density (450 nm) ([1]; Table 5, sample 8242 (positive), peptide concentration 3.0 micrograms per milliliter, listed as Unbiotinylated HCV peptide IX): 0.059
optical density (450 nm) ([1]; Table 5, sample 8243 (positive), peptide concentration 0.01 micrograms per milliliter, listed as Unbiotinylated HCV peptide IX): 0.054
optical density (450 nm) ([1]; Table 5, sample 8243 (positive), peptide concentration 0.03 micrograms per milliliter, listed as Unbiotinylated HCV peptide IX): 0.051
optical density (450 nm) ([1]; Table 5, sample 8243 (positive), peptide concentration 0.1 micrograms per milliliter, listed as Unbiotinylated HCV peptide IX): 0.051
optical density (450 nm) ([1]; Table 5, sample 8243 (positive), peptide concentration 0.3 micrograms per milliliter, listed as Unbiotinylated HCV peptide IX): 0.051
optical density (450 nm) ([1]; Table 5, sample 8243 (positive), peptide concentration 1.0 micrograms per milliliter, listed as Unbiotinylated HCV peptide IX): 0.053
optical density (450 nm) ([1]; Table 5, sample 8243 (positive), peptide concentration 3.0 micrograms per milliliter, listed as Unbiotinylated HCV peptide IX): 0.063
optical density (450 nm) ([1]; Table 5, sample 8320 (positive), peptide concentration 0.01 micrograms per milliliter, listed as Unbiotinylated HCV peptide IX): 0.059
optical density (450 nm) ([1]; Table 5, sample 8320 (positive), peptide concentration 0.03 micrograms per milliliter, listed as Unbiotinylated HCV peptide IX): 0.057
optical density (450 nm) ([1]; Table 5, sample 8320 (positive), peptide concentration 0.1 micrograms per milliliter, listed as Unbiotinylated HCV peptide IX): 0.063
optical density (450 nm) ([1]; Table 5, sample 8320 (positive), peptide concentration 0.3 micrograms per milliliter, listed as Unbiotinylated HCV peptide IX): 0.122
optical density (450 nm) ([1]; Table 5, sample 8320 (positive), peptide concentration 1.0 micrograms per milliliter, listed as Unbiotinylated HCV peptide IX): 0.093
optical density (450 nm) ([1]; Table 5, sample 8320 (positive), peptide concentration 3.0 micrograms per milliliter, listed as Unbiotinylated HCV peptide IX): 0.129
optical density (450 nm) ([1]; Table 5, sample 8326 (positive), peptide concentration 0.01 micrograms per milliliter, listed as Unbiotinylated HCV peptide IX): 0.049
optical density (450 nm) ([1]; Table 5, sample 8326 (positive), peptide concentration 0.03 micrograms per milliliter, listed as Unbiotinylated HCV peptide IX): 0.051
optical density (450 nm) ([1]; Table 5, sample 8326 (positive), peptide concentration 0.1 micrograms per milliliter, listed as Unbiotinylated HCV peptide IX): 0.068
optical density (450 nm) ([1]; Table 5, sample 8326 (positive), peptide concentration 0.3 micrograms per milliliter, listed as Unbiotinylated HCV peptide IX): 0.078
optical density (450 nm) ([1]; Table 5, sample 8326 (positive), peptide concentration 1.0 micrograms per milliliter, listed as Unbiotinylated HCV peptide IX): 0.068
optical density (450 nm) ([1]; Table 5, sample 8326 (positive), peptide concentration 3.0 micrograms per milliliter, listed as Unbiotinylated HCV peptide IX): 0.084
optical density (450 nm) ([2]; Table 4F, negative serum): 0.052
optical density (450 nm) ([2]; Table 5, sample 1747 (negative), peptide concentration 0.01 micrograms per milliliter, listed as Unbiotinylated HCV peptide IX): 0.045
optical density (450 nm) ([2]; Table 5, sample 1747 (negative), peptide concentration 0.03 micrograms per milliliter, listed as Unbiotinylated HCV peptide IX): 0.045
optical density (450 nm) ([2]; Table 5, sample 1747 (negative), peptide concentration 0.1 micrograms per milliliter, listed as Unbiotinylated HCV peptide IX): 0.045
optical density (450 nm) ([2]; Table 5, sample 1747 (negative), peptide concentration 0.3 micrograms per milliliter, listed as Unbiotinylated HCV peptide IX): 0.044
optical density (450 nm) ([2]; Table 5, sample 1747 (negative), peptide concentration 1.0 micrograms per milliliter, listed as Unbiotinylated HCV peptide IX): 0.046
optical density (450 nm) ([2]; Table 5, sample 1747 (negative), peptide concentration 3.0 micrograms per milliliter, listed as Unbiotinylated HCV peptide IX): 0.046
optical density (450 nm) ([2]; Table 5, sample 1781 (negative), peptide concentration 0.01 micrograms per milliliter, listed as Unbiotinylated HCV peptide IX): 0.051
optical density (450 nm) ([2]; Table 5, sample 1781 (negative), peptide concentration 0.03 micrograms per milliliter, listed as Unbiotinylated HCV peptide IX): 0.049
optical density (450 nm) ([2]; Table 5, sample 1781 (negative), peptide concentration 0.1 micrograms per milliliter, listed as Unbiotinylated HCV peptide IX): 0.052
optical density (450 nm) ([2]; Table 5, sample 1781 (negative), peptide concentration 0.3 micrograms per milliliter): 0.051
optical density (450 nm) ([2]; Table 5, sample 1781 (negative), peptide concentration 1.0 micrograms per milliliter, listed as Unbiotinylated HCV peptide IX): 0.052
optical density (450 nm) ([2]; Table 5, sample 1781 (negative), peptide concentration 3.0 micrograms per milliliter): 0.053
